Drawing on ChEMBL document CHEMBL3870328, “Synthesis of novel Ral inhibitors: An in vitro and in vivo study” (Bioorg Med Chem Lett, 2016), this text covers Drug metabolism and concentration for one molecule.

Each structure is given as a SMILES string.

A short description of series [1]: Drug metabolism in mouse xenografted with human NCI-H2122 cells assessed as M5 metabolite formation in plasma at 50 mg/kg, ip after 3 hrs by LC-MS/MS analysis. Format: ADME, organism-based. Particulars: in vivo. For orientation: A xenograft is tissue or cells of one species grown in another, often human tumour cells in immunodeficient mice.
Series [2] is described as follows: Drug uptake in lungs of mouse xenografted with human NCI-H2122 cells at 50 mg/kg, ip after 3 hrs by LC-MS/MS analysis. The series is classed as ADME, organism-based. Particulars: lung, read-out: Drug uptake.
Series [3] is described as follows: Drug metabolism in mouse xenografted with human NCI-H2122 cells assessed as 6-amino-4-(2,5-dihydroxyphenyl)-3-(naphthalen-2-yl)-1,4-dihydropyrano[2,3-c]pyrazole-5-carbonitrile metabolite formation in lungs at 50 mg/kg, ip after 3 hrs by LC-MS/MS analysis. The series is classed as ADME, organism-based, Lung. To be noted: in vivo.
Series [4] can be described thus: Drug metabolism in CD1 mouse liver microsomes assessed as CYP450-mediated mono-oxidation by measuring 6-amino-4-(2,5-dihydroxyphenyl)-3-(naphthalen-2-yl)-1,4-dihydropyrano[2,3-c]pyrazole-5-carbonitrile metabolite formation at 16.7 uM after 10 mins in presence of NADPH by LC-MS/MS analysis. The series is classed as ADME. Background: Liver microsomes are a subcellular fraction often used to study metabolism.

A short description of series [5]: Drug metabolism in mouse xenografted with human NCI-H2122 cells assessed as M3 metabolite formation in lungs at 50 mg/kg, ip after 3 hrs by LC-MS/MS analysis. Format: ADME, organism-based, Lung. To be noted: in vivo.
The nature of series [6]: Drug uptake in heart of mouse xenografted with human NCI-H2122 cells at 50 mg/kg, ip after 3 hrs by LC-MS/MS analysis. Format: ADME, organism-based. To be noted: read-out: Drug uptake.
Series [7] can be described thus: Drug metabolism in mouse xenografted with human NCI-H2122 cells assessed as 6-amino-4-(2,5-dihydroxyphenyl)-3-(naphthalen-2-yl)-1,4-dihydropyrano[2,3-c]pyrazole-5-carbonitrile metabolite formation in kidney at 50 mg/kg, ip after 3 hrs by LC-MS/MS analysis. The series is classed as ADME, organism-based. To be noted: in vivo.
Series [8] in a line: Drug uptake in kidney of mouse xenografted with human NCI-H2122 cells at 50 mg/kg, ip after 3 hrs by LC-MS/MS analysis. Format: ADME, organism-based. Particulars: read-out: Drug uptake.
A short description of series [9]: Drug metabolism in mouse xenografted with human NCI-H2122 cells assessed as M1 metabolite formation in plasma at 50 mg/kg, ip after 3 hrs by LC-MS/MS analysis. Format: ADME, organism-based. To be noted: in vivo.

With `COc1ccc(OC)c(C2C(C#N)=C(N)Oc3[nH]nc(-c4ccc5ccccc5c4)c32)c1` (centres undefined), the Drug metabolism was 2.7 ng/mL in series [1]; 1.1 ng/g in [3]; “Metabolite_Detected” in series [4]; 2 ng/g in series [5]; 3.7 ng/g in series [7]; 7.7 ng/mL in series [9]. Further, the concentration at 3 h was 21600 ng/g in [2], 13700 ng/g in [6] and 24600 ng/g in series [8].
